Experimental data reported in doi:10.1101/2021.06.24.449719v1 (biorxiv, 2021).

How the values were obtained:
BuGH3MLG [1] = assay: PAHBAH reducing sugar assay, […] nm; format: biochemical, Bacteroides uniformis; settings: 30 min hydrolysis
BuGH3MLG [2] = assay: p-nitrophenol release, absorbance […] nm; format: biochemical, Bacteroides uniformis; settings: sodium phosphate pH 5.7, 37 °C

| Compound | Km (BuGH3MLG [1]) [µM] | Km (BuGH3MLG [2]) [µM] |
| --- | --- | --- |
| OC[C@H]1O[C@@H](O[C@H]2[C@H](O)[C@@H](O)C(O)O[C@@H]2CO)[C@H](O)[C@@H](O)[C@@H]1O (stereo partly shown) [Cellobiose] | 7.4 ± 1.24 |  |
| OC[C@H]1O[C@@H](O[C@H]2[C@H](O)[C@@H](O)[C@H](O[C@H]3[C@H](O)[C@@H](O)[C@H](O[C@H]4[C@H](O)[C@@H](O)C(O)O[C@@H]4CO)O[C@@H]3CO)O[C@@H]2CO)[C@H](O)[C@@H](O)[C@@H]1O (stereo partly shown) [Cellotetraose] | 56.9 ± 9 |  |
| OC[C@H]1O[C@@H](O[C@H]2[C@H](O)[C@@H](O)[C@H](O[C@H]3[C@H](O)[C@@H](O)C(O)O[C@@H]3CO)O[C@@H]2CO)[C@H](O)[C@@H](O)[C@@H]1O (stereo partly shown) [Cellotriose] | 26.1 ± 5.5 |  |
| OC[C@H]1O[C@@H](O[C@H]2[C@H](O)[C@@H](O)[C@H](O[C@H]3[C@H](O)[C@@H](O)[C@H](O[C@H]4[C@H](O)[C@@H](CO)OC(O)[C@@H]4O)O[C@@H]3CO)O[C@@H]2CO)[C@H](O)[C@@H](O)[C@@H]1O (stereo partly drawn) [G4G4G3G, β-d-Glc^iv(1→4)β-d-Glc^iii(1→4)β-d-Glc^ii(1→3)-d-Glc^i] | 28.2 ± 6.2 |  |
| OC[C@H]1O[C@@H](OC[C@H]2OC(O)[C@H](O)[C@@H](O)[C@@H]2O)[C@H](O)[C@@H](O)[C@@H]1O (stereo partly shown) [Gentiobiose] | 241 ± 16.2 |  |
| OC[C@H]1O[C@@H](O[C@H]2[C@H](O)[C@@H](CO)OC(O)[C@@H]2O)[C@H](O)[C@@H](O)[C@@H]1O (stereo partly shown) [Laminaribiose] | 7.1 ± 1.2 |  |
| OC[C@H]1O[C@@H](O[C@@H]2[C@@H](O)[C@H](O[C@@H]3[C@@H](O)[C@H](O[C@H]4[C@H](O)[C@@H](CO)OC(O)[C@@H]4O)O[C@H](CO)[C@H]3O)O[C@H](CO)[C@H]2O)[C@H](O)[C@@H](O)[C@@H]1O (stereo partly shown) [Laminaritetrose] | 9.9 ± 1.1 |  |
| OC[C@H]1O[C@@H](O[C@@H]2[C@@H](O)[C@H](O[C@H]3[C@H](O)[C@@H](CO)OC(O)[C@@H]3O)O[C@H](CO)[C@H]2O)[C@H](O)[C@@H](O)[C@@H]1O (stereo partly shown) [Laminaritriose] | 7.5 ± 0.5 |  |
| O=[N+]([O-])c1ccc(O[C@@H]2O[C@H](CO)[C@@H](O[C@@H]3O[C@H](CO)[C@@H](O)[C@H](O)[C@H]3O)[C@H](O)[C@H]2O)cc1 [p-Nitrophenyl β-D-cellobioside] |  | 640 ± 90 |
| O=[N+]([O-])c1ccc(O[C@@H]2O[C@H](CO)[C@@H](O)[C@H](O[C@@H]3O[C@H](CO)[C@@H](O)[C@H](O)[C@H]3O)[C@H]2O)cc1 [p-Nitrophenyl β-D-laminaribioside] |  | 880 ± 160 |
| O=[N+]([O-])c1ccc(O[C@@H]2O[C@H](CO)[C@@H](O)[C@H](O)[C@H]2O)cc1 [p-Nitrophenyl-β-D-glucopyranoside] |  | 530 ± 120 |
| CC(=O)N[C@H]1[C@H](Oc2ccc([N+](=O)[O-])cc2)O[C@H](CO)[C@@H](O)[C@@H]1O [p-nitrophenyl-N-acetyl glucosaminide] |  | 2900 ± 700 |
| OC[C@H]1O[C@@H](O[C@H]2[C@H](O)[C@@H](O)[C@H](O[C@H]3[C@H](O)[C@@H](CO)OC(O)[C@@H]3O)O[C@@H]2CO)[C@H](O)[C@@H](O)[C@@H]1O (stereo partly drawn) [β-D-cellobiosyl-glucose, β-d-Glc^iii(1→4)β-d-Glc^ii(1→3)-d-Glc^i] | 41.3 ± 7 |  |
